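Assay format: 96-well plates, 48-hour exposure. At the GI50, growth is halved.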 The source made the active and inactive calls. Cut-off read from the data, not from the text of the source: active = GI50 up to about 1.1 µM and inactive = higher.
Tests used:
Assay in all cases: inhibition of tumour cell growth, NCI panel, 48 h
NCI-H23 = tested on: NCI-H23
KM12 = tested on: KM12
CAKI-1 = tested on: CAKI-1
SF-295 = tested on: SF-295
COLO 205 = tested on: COLO 205
HT-29 = tested on: HT-29
ACHN = tested on: ACHN
EKVX = tested on: EKVX
PC-3 = tested on: PC-3
NCI/ADR-RES = tested on: NCI/ADR-RES
MDA-MB-435 = tested on: MDA-MB-435
HCT-116 = tested on: HCT-116
BT-549 = tested on: BT-549
MCF7 = tested on: MCF7
A498 = tested on: A498
IGROV-1 = tested on: IGROV-1
SNB-19 = tested on: SNB-19
SN12C = tested on: SN12C
T47D = tested on: T47D
SK-MEL-2 = tested on: SK-MEL-2

| SMILES | GI50 (NCI-H23) | GI50 (KM12) | GI50 (CAKI-1) | GI50 (SF-295) | GI50 (COLO 205) | GI50 (HT-29) | GI50 (ACHN) | GI50 (EKVX) | GI50 (PC-3) | GI50 (NCI/ADR-RES) | GI50 (MDA-MB-435) | GI50 (HCT-116) | GI50 (BT-549) | GI50 (MCF7) | GI50 (A498) | GI50 (IGROV-1) | GI50 (SNB-19) | GI50 (SN12C) | GI50 (T47D) | GI50 (SK-MEL-2) |
| --- | --- | --- | --- | --- | --- | --- | --- | --- | --- | --- | --- | --- | --- | --- | --- | --- | --- | --- | --- | --- |
| O=[N+]([O-])c1ccc(/C=N/n2c(CO)nc3ccccc32)o1 | 5.42 µM (inactive) | 3.11 µM (inactive) | 9.68 µM (inactive) | 11.7 µM (inactive) | 3.1 µM (inactive) | 2.8 µM (inactive) | 4.25 µM (inactive) | 11.3 µM (inactive) | 10.2 µM (inactive) | 15.7 µM (inactive) | 3.4 µM (inactive) | 1.71 µM (inactive) | 13.6 µM (inactive) | 2.96 µM (inactive) | 17.9 µM (inactive) | 0.993 µM (active) | 15.8 µM (inactive) | 5.35 µM (inactive) | 20.5 µM (inactive) | 4.67 µM (inactive) |
| O=C1CC(c2ccc(O)cc2)C2(O1)C(=O)OC(C(O)CO)C2O (centres undefined) | > 100 µM (inactive) | > 100 µM (inactive) | > 100 µM (inactive) | > 100 µM (inactive) | > 100 µM (inactive) | > 100 µM (inactive) | > 100 µM (inactive) | > 100 µM (inactive) | > 100 µM (inactive) | > 100 µM (inactive) | > 100 µM (inactive) | > 100 µM (inactive) | > 100 µM (inactive) | > 100 µM (inactive) | > 100 µM (inactive) | > 100 µM (inactive) | > 100 µM (inactive) | > 100 µM (inactive) | > 100 µM (inactive) | > 100 µM (inactive) |
| COc1cc2[nH]c(=O)c3cc(-c4ccccc4)cc4c(Cl)nc(c1OC)c2c43 | 15.3 µM (inactive) | 20 µM (inactive) | 24.4 µM (inactive) | > 49.4 µM (inactive) | 11.6 µM (inactive) | 3.92 µM (inactive) | 15.6 µM (inactive) | 14 µM (inactive) | 4.86 µM (inactive) | 7.35 µM (inactive) | 2.81 µM (inactive) | 3.1 µM (inactive) | 43.2 µM (inactive) | 2.36 µM (inactive) | > 100 µM (inactive) | 19.1 µM (inactive) | 28.1 µM (inactive) | 11.7 µM (inactive) | 24.4 µM (inactive) | 15.1 µM (inactive) |
| NC(Cc1ccc(N(CCCl)CCCl)cc1)C(=O)NC(CCC(=O)O)C(=O)O (centres undefined) | > 100 µM (inactive) | > 100 µM (inactive) | > 100 µM (inactive) | > 100 µM (inactive) | > 100 µM (inactive) | > 100 µM (inactive) | > 100 µM (inactive) | > 100 µM (inactive) | > 100 µM (inactive) | > 100 µM (inactive) | > 100 µM (inactive) | > 100 µM (inactive) | > 100 µM (inactive) | > 100 µM (inactive) | > 100 µM (inactive) | > 100 µM (inactive) | > 100 µM (inactive) | > 100 µM (inactive) | > 100 µM (inactive) | > 100 µM (inactive) |
| C[C@@]12C=CC3C/C(=N\C(N)=S)C=C(CCCC4OCCO4)[C@]3(CC1)C2 (some centres undefined) | 21.3 µM (inactive) | 23.6 µM (inactive) | 25.1 µM (inactive) | 23.1 µM (inactive) | 13.2 µM (inactive) | 11.2 µM (inactive) | 28.6 µM (inactive) | 10.3 µM (inactive) | 17.4 µM (inactive) | 15.8 µM (inactive) | 16.9 µM (inactive) | 13.7 µM (inactive) | 16.9 µM (inactive) | 10.8 µM (inactive) | 15.5 µM (inactive) | 14.8 µM (inactive) | 34.5 µM (inactive) | 16.5 µM (inactive) | 22.1 µM (inactive) | 16.9 µM (inactive) |
| CCOC(=O)/C(C(=O)Nc1ccc(F)cc1)=C(/N)N1CCOCC1 | > 100 µM (inactive) | > 100 µM (inactive) | > 100 µM (inactive) | > 100 µM (inactive) | > 100 µM (inactive) | > 100 µM (inactive) | > 100 µM (inactive) | > 100 µM (inactive) | > 100 µM (inactive) | > 100 µM (inactive) | > 100 µM (inactive) | > 100 µM (inactive) | > 100 µM (inactive) | > 100 µM (inactive) | > 100 µM (inactive) | > 100 µM (inactive) | > 100 µM (inactive) | > 100 µM (inactive) | > 100 µM (inactive) | > 100 µM (inactive) |
| Clc1ccccc1NN(Cc1ccccn1)c1ccccc1Cl | 20 µM (inactive) | 16.9 µM (inactive) | 54.3 µM (inactive) | 30.1 µM (inactive) | 15.6 µM (inactive) | 14.6 µM (inactive) | 33.9 µM (inactive) | 23 µM (inactive) | 29.2 µM (inactive) | 16.7 µM (inactive) | 16.6 µM (inactive) | 14 µM (inactive) | 25.1 µM (inactive) | 36.1 µM (inactive) | 20.5 µM (inactive) | 20.2 µM (inactive) | 27.9 µM (inactive) | 18.8 µM (inactive) | 27.4 µM (inactive) | 17.1 µM (inactive) |
| NCCCCNCCCNC(=O)CNC(=O)CC(O)C(N)CCCC(NC(=O)C(CN)NC(=O)C(O)CNC(=O)CC(N)c1ccc(O)cc1)C(=O)O (centres undefined) | > 10 µM (inactive) | > 10 µM (inactive) | > 10 µM (inactive) | > 10 µM (inactive) | > 10 µM (inactive) | > 10 µM (inactive) | > 10 µM (inactive) | > 10 µM (inactive) | > 10 µM (inactive) | > 10 µM (inactive) | > 10 µM (inactive) | > 10 µM (inactive) | > 10 µM (inactive) | > 10 µM (inactive) | > 10 µM (inactive) | > 10 µM (inactive) | > 10 µM (inactive) | > 10 µM (inactive) | > 10 µM (inactive) | > 10 µM (inactive) |
| NCCCN1CCN(c2ccccc2)CC1 |  | > 100 µM (inactive) | > 100 µM (inactive) | 10.2 µM (inactive) | 78.7 µM (inactive) | 95.1 µM (inactive) | > 100 µM (inactive) | > 100 µM (inactive) | 33.4 µM (inactive) | > 100 µM (inactive) | 51.2 µM (inactive) | > 100 µM (inactive) | > 100 µM (inactive) | > 100 µM (inactive) | > 100 µM (inactive) | > 100 µM (inactive) | > 100 µM (inactive) | > 100 µM (inactive) | > 100 µM (inactive) | > 100 µM (inactive) |
| Nc1nc(N)c2nc(CNc3ccc(C(=O)NC(CCCCNC(=O)c4ccccc4C(=O)O)C(=O)O)cc3)cnc2n1 (centres undefined) | 0.0143 µM (active) | 0.01 µM (active) | 0.01 µM (active) | < 0.0332 µM (active) | 0.01 µM (active) | 0.01 µM (active) | 0.01 µM (active) | > 34.4 µM (inactive) | 0.01 µM (active) | 0.01 µM (active) | 0.01 µM (active) | 0.01 µM (active) | > 100 µM (inactive) | 0.01 µM (active) | 0.0738 µM (active) | < 0.0113 µM (active) | < 0.0158 µM (active) | 0.01 µM (active) | 0.01 µM (active) | 68.4 µM (inactive) |

From ChEMBL document CHEMBL1201862, “PubChem BioAssay data set” (2004)
